Patent US20240239801A1, “PYRIMIDO[5,4,D]PYRIMIDINE COMPOUNDS, COMPOSITIONS COMPRISING THEM AND USES THEREOF” (Université de Montréal, priority 2021, published 2024)

What was measured:
[1] = system: SW620 pERK; experiment: Phospho-ERK inhibition, AlphaLISA SureFire Ultra p-ERK 1/2; assay type: cell-based, human; settings: Table D-2; for pERK IC50 curve bottom (Ymin), %: % Ymin of pERK IC50 curve
How it was run: (§1)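 IC50 derived by four-parameter fitting of % inhibition, with DMSO as 0% and 1 μM trametinib subtracted as background. Signal is AlphaLISA p-ERK1/2 (Thr202/Tyr204) in lysates of overnight-seeded cells (RPMI-1640, 5% FBS) treated 1 h with ten concentrations from 30 or 10 μM to 0.33 nM, 0.5% DMSO.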

[2] = system: IPC298 pERK; experiment: as above; assay type: cell-based, human; settings: Table D-1; for IPC298 pERK, value in parentheses, % inhibition: % Ymin of pERK IC50 curve
How it was run: as §1

[3] = system: SK-MEL30 pERK; experiment: as above; assay type: cell-based, human; settings: Table D-1; for SK-MEL30 pERK, value in parentheses, % inhibition: % Ymin of pERK IC50 curve
How it was run: as §1

[4] = target: T1, BRAF (Homo sapiens, UniProt P15056); experiment: BRAF kinase activity assay (ADP-Glo); assay type: biochemical; settings: Table 3
T1 construct: GST; purchased Millipore Sigma B4062-10UG
How it was run: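 GST-tagged BRAF (0.375 nM) was reacted with 75 nM kinase-dead MEK1 and 10 μM ATP for 2 h at 30 °C in HEPES pH 7.5 buffer with MgCl2, EDTA, Brij-35 and DTT. Compounds were tested at nine concentrations from 100 nM to 0.01 nM with 0.05% DMSO final. ADP-Glo luminescence gave % inhibition, and IC50 came from a four-parameter fit.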

[5] = target: CRAF (Homo sapiens, UniProt P04049); experiment: CRAF kinase activity assay (ADP-Glo); assay type: biochemical; settings: Table 3
How it was run: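 CRAF inhibition was measured by ADP-Glo. 0.375 nM purified GST-tagged CRAF was combined with 75 nM kinase-dead MEK1 substrate and 10 μM ATP in 50 mM HEPES pH 7.5, 10 mM MgCl2, 1 mM EDTA, 0.01% Brij-35 and 2 mM DTT, with nine compound concentrations from 100 nM to 0.01 nM (0.05% DMSO), in 384-well plates for 2 hours at 30° C. Luminescence was read after adding ADP-Glo and Kinase Detection reagents. IC50 came from four-parameter curve fits.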

T1 sequence (P15056 whole entry): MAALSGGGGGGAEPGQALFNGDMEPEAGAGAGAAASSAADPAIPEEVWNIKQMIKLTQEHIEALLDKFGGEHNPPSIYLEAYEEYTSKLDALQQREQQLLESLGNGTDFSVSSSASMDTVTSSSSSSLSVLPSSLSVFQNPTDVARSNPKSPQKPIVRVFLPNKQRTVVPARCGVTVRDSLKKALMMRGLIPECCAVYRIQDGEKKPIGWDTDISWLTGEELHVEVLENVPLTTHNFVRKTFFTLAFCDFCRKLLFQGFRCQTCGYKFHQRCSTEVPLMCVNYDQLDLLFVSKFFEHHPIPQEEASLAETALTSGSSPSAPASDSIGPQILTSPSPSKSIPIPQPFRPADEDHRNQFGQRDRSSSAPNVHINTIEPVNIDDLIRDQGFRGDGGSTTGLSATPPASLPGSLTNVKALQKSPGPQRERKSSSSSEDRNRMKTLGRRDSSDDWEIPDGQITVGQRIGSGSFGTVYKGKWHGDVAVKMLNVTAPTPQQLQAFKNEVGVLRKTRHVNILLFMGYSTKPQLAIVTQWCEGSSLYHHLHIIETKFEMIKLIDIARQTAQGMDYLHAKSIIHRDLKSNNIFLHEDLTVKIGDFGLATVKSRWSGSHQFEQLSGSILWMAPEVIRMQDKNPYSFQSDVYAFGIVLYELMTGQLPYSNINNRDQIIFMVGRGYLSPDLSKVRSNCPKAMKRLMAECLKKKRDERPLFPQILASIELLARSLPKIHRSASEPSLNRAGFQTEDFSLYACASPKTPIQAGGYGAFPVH
Chain of CRAF (P04049 whole entry): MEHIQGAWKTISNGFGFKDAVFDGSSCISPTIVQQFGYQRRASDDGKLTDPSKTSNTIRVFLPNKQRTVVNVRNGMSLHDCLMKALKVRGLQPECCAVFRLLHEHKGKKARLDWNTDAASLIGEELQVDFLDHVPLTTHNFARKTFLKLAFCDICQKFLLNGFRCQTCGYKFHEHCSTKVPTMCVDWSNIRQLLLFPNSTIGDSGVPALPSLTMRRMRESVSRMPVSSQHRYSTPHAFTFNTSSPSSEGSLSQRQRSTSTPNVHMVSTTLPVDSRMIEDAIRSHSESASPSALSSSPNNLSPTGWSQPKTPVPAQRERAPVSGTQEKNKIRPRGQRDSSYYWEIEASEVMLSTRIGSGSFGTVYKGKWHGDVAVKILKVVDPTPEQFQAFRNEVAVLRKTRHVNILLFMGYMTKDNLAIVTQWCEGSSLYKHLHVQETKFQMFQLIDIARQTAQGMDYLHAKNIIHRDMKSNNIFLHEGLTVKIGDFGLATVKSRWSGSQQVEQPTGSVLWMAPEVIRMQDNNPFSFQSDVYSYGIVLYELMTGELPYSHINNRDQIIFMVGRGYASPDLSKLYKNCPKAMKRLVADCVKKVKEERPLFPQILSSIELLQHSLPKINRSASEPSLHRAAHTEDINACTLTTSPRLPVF

| SMILES | IC50 [1] | pERK IC50 curve bottom (Ymin), % [1] | IC50 [2] | IC50 [3] | IC50 [4] | IC50 [5] | IC50 ([1]; Homo sapiens, SW-620) | IC50 ([2]; Homo sapiens, IPC-298) | IC50 ([3]; Homo sapiens, SK-MEL-30) | IPC298 pERK, value in parentheses, % inhibition [2] | SK-MEL30 pERK, value in parentheses, % inhibition [3] |
| --- | --- | --- | --- | --- | --- | --- | --- | --- | --- | --- | --- |
| Cc1ccc2c(Nc3cccc(Cl)c3F)nccc2c1NC(=O)c1csc2c(N)ncnc12 [Belvarafenib, reference compound] | – | – | – | – | – | – | 30 to 300 nM | 30 to 300 nM | < 30 nM | (−63) % | (−45) % |
| Nc1cccc2c1ncn2-c1ncc2ncnc(Nc3c(F)ccc(NS(=O)(=O)c4cccc(Cl)c4Cl)c3F)c2n1 [Example 80] | – | – | – | – | < 1 nM | < 10 nM | – | – | – | – | – |
| O=S(=O)(Nc1ccc(F)c(Nc2ncnc3cnc(-n4cnc5c(N6CCC7(CCCO7)CC6)cccc54)nc23)c1F)c1cccc(Cl)c1Cl [Example 129] | > 300 nM | (−7) % | 30 to 300 nM | < 30 nM | > 10 nM | 10 to 50 nM | – | – | – | (17) % | (16) % |

Second part, led by results:

| IC50 [1] | pERK IC50 curve bottom (Ymin), % [1] | IC50 [2] | IC50 [3] | IC50 [4] | IC50 [5] | IC50 ([1]; Homo sapiens, SW-620) | IC50 ([2]; Homo sapiens, IPC-298) | IC50 ([3]; Homo sapiens, SK-MEL-30) | SMILES | IPC298 pERK, value in parentheses, % inhibition [2] | SK-MEL30 pERK, value in parentheses, % inhibition [3] |
| --- | --- | --- | --- | --- | --- | --- | --- | --- | --- | --- | --- |
| 30 to 300 nM | (11) % | 30 to 300 nM | < 30 nM | > 10 nM | 10 to 50 nM | – | – | – | COc1ccc(S(=O)(=O)Nc2ccc(F)c(Nc3ncnc4cnc(-n5cnc6c(N)cccc65)nc34)c2F)c(C)c1Cl [Example 112] | (1) % | (6) % |
| 30 to 300 nM | (36) % | 30 to 300 nM | < 30 nM | < 1 nM | 10 to 50 nM | – | – | – | Cc1c(F)cccc1S(=O)(=O)Nc1ccc(F)c(Nc2ncnc3cnc(-n4cc(C(=O)N(C)Cc5ccncc5)c5ccccc54)nc23)c1F [Example 98] | (13) % | (10) % |
| – | (−13) % | – | – | 1 to 10 nM | 10 to 50 nM | > 300 nM | 30 to 300 nM | 30 to 300 nM | Cc1c(F)cccc1S(=O)(=O)Nc1ccc(F)c(Nc2ncnc3cnc(-n4cnc5c(-c6cccnc6)cccc54)nc23)c1F [Example 114] | (1) % | (−9) % |
